Assay results as given in ChEMBL document CHEMBL1909046, “DrugMatrix in vitro pharmacology data”.

Key:
[1] = biological target: Histamine H2 receptor (Homo sapiens, UniProt P25021); format: cell membranes, CHO-K1, Membrane; conditions: cho-k1; note: in other assays of this panel Not Active means under 50% inhibition at 10 µM
[2] = biological target: T1, 3-hydroxy-3-methylglutaryl-coenzyme A reductase (Homo sapiens, UniProt P04035); design: species or system Escherichia coli;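 note: enzyme inhibition assay of HMG-CoA reductase using radiolabeled [14C]HMG-CoA as substrate; in other assays of this panel Not Active means under 50% inhibition at 10 µM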
T1 sequence (P04035 whole entry): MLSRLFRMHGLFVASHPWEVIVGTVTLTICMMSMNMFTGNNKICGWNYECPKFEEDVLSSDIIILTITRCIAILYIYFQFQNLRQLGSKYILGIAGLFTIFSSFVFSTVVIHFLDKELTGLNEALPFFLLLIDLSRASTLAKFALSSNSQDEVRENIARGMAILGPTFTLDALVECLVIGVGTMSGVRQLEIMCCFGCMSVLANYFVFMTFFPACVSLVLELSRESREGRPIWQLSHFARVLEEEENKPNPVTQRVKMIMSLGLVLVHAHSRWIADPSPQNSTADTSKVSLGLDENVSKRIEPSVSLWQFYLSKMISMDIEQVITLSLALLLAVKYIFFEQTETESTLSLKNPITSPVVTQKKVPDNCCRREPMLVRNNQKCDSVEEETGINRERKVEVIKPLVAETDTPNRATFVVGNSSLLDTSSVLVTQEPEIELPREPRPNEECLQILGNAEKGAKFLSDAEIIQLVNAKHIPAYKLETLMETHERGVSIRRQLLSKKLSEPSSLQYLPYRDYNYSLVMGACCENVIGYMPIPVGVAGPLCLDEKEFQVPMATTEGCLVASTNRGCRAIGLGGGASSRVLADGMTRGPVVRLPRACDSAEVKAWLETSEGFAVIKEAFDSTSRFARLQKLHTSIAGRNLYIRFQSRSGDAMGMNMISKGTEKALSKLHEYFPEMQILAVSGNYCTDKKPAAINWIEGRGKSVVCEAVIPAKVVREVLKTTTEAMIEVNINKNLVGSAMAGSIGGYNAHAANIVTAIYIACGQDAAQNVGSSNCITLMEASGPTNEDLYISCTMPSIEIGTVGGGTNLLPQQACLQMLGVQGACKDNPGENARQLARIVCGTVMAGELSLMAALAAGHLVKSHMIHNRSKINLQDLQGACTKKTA

[3] = biological target: T2, Polyunsaturated fatty acid lipoxygenase ALOX15 (Oryctolagus cuniculus, UniProt P12530); assay: biochemical; format: tissue-based, Reticulocytes; conditions: reticulocytes;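 note: inhibition of 15-lipoxygenase enzyme activity measured with linoleic acid as the substrate; in other assays of this panel Not Active means under 50% inhibition at 10 µM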
T2 sequence (P12530 whole entry): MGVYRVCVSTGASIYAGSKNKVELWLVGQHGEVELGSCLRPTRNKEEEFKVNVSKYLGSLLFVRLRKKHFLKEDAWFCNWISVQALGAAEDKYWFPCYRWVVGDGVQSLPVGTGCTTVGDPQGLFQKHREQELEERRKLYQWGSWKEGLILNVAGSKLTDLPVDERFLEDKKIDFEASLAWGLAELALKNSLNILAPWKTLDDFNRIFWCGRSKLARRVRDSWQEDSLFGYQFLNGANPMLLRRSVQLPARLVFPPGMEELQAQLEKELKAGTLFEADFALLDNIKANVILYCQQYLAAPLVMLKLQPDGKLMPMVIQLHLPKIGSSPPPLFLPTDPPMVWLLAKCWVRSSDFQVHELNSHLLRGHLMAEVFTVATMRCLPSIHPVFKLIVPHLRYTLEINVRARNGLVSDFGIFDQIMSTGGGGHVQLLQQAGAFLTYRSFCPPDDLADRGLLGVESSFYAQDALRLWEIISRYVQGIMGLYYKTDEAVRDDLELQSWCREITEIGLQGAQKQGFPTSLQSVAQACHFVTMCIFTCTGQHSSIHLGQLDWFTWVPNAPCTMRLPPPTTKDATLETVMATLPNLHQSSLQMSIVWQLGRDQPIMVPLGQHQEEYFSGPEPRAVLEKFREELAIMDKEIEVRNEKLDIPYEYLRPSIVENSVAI

[4] = biological target: T3, Muscarinic acetylcholine receptor M2 (Homo sapiens, UniProt P08172); format: cell membranes, CHO-K1, Membrane; conditions: cho-k1; note: in other assays of this panel Not Active means under 50% inhibition at 10 µM
T3 sequence (P08172 whole entry): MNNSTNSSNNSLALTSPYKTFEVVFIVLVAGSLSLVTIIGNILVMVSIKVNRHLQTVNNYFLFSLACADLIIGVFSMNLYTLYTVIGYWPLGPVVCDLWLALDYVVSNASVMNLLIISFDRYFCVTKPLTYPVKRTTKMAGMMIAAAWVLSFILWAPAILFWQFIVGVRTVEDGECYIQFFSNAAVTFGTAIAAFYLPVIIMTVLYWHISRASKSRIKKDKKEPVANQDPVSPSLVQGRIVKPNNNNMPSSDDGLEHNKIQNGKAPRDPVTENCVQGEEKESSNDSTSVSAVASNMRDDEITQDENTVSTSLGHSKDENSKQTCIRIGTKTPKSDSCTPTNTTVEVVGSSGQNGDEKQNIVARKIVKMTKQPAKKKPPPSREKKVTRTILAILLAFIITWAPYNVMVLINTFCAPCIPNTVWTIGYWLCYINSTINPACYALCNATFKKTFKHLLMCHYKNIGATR

[5] = biological target: Delta-type opioid receptor (Homo sapiens, UniProt P41143); format: cell membranes, HEK293, Membrane; conditions: hek293; note: in other assays of this panel Not Active means under 50% inhibition at 10 µM
[6] = biological target: cGMP-specific 3',5'-cyclic phosphodiesterase (Homo sapiens, UniProt O76074); assay: DRUGMATRIX: Phosphodiesterase PDE5 enzyme inhibition (substrate: [3H]cGMP + cGMP); format: tissue-based, Platelet; conditions: platelet; Not Active = under 50% inhibition at 10 µM
[7] = biological target: T4, Progesterone receptor (Bos taurus, UniProt Q690N0); assay: DRUGMATRIX: Progesterone radioligand binding (ligand: [3H] R-5020); format: tissue-based, Uterus; conditions: Not Active = under 50% inhibition at 10 µM
T4 sequence (Q690N0 whole entry): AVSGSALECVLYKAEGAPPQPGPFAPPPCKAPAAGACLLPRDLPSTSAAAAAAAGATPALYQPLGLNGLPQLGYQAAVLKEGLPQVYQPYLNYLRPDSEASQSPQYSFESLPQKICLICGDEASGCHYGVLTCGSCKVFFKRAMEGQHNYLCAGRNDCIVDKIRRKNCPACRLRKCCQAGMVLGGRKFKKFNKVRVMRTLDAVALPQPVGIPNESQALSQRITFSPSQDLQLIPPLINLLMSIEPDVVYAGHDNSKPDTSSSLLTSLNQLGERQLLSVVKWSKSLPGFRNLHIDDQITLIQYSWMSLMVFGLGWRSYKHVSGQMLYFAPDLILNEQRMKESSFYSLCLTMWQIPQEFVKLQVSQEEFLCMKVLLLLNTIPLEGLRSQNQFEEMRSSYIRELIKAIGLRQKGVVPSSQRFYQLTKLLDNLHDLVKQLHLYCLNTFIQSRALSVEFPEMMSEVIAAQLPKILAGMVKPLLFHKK

Sequence of Histamine H2 receptor (P25021 whole entry): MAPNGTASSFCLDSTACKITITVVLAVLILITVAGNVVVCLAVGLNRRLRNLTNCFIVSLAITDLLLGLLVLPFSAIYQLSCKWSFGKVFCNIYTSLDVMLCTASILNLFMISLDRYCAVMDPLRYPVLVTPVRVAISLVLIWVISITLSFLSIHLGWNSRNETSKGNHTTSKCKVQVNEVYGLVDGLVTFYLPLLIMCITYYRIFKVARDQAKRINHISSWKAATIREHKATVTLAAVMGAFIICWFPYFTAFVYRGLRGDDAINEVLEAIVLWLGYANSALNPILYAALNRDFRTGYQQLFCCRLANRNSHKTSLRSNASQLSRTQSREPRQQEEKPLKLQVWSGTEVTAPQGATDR
Sequence of Delta-type opioid receptor (P41143 whole entry): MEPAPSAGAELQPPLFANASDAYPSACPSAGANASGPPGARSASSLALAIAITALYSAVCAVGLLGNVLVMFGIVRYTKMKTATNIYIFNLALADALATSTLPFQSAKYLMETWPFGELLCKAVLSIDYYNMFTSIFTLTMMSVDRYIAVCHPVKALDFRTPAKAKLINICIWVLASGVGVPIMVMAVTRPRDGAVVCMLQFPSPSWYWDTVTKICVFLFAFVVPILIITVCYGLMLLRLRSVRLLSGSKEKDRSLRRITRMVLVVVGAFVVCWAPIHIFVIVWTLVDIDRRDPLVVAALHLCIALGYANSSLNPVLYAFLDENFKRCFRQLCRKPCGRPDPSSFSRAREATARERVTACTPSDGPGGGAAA

GOLD SODIUM THIOMALATE
Not Active: IC50 [1] | Ki [1] | IC50 [2] | Ki [2] | IC50 [3] | Ki [3] | IC50 [4] | Ki [4] | IC50 [5] | Ki [5] | IC50 [6] | Ki [6] | IC50 [7] | Ki [7]

OXALIPLATIN
Not Active: IC50 [1] | Ki [1] | IC50 [2] | Ki [2] | IC50 [3] | Ki [3] | IC50 [4] | Ki [4] | IC50 [5] | Ki [5] | IC50 [6] | Ki [6] | IC50 [7] | Ki [7]
